Activity calls are given as the source filed them. How the calls were made is not given here.

This passage reports IC50 results from PubChem BioAssay AID712 (Emory University Molecular Libraries Screening Center, 2007).

The test has as its target Heat shock protein HSP 90-alpha (Homo sapiens) (UniProt P07900). The experiment in a line: Hsp90 blockade concentration-response – dose response (AID 712). The conditions noted are these: Hsp90 inhibition assay.

Turning to `CC(C)(C)OC(=O)Nc1cccc(NS(=O)(=O)c2cc(Cl)ccc2Cl)c1-c1ccccc1O`, the IC50 (in general, the concentration at which inhibition is half-maximal) is > 50 µM (inactive). With `Cn1c(=O)c2c(nc(Oc3ccc4c(c3)OCO4)n2Cc2ccc(Cl)cc2)n(C)c1=O` the figure was > 50 µM (inactive). As for `CCn1cc(C(=O)NCc2ccccn2)c(=O)c2cc(S(=O)(=O)N3CCCCC3)ccc21`, the figure is 17.4 µM; as for `Nc1cc(N)c2cccnc2c1O`, 3.13 µM. With `COc1cccc2c1C(=O)c1c(O)c3c(c(O)c1C2=O)C[C@@](O)(C(C)=O)C[C@@H]3O[C@H]1C[C@H](N)[C@H](O)[C@H](C)O1` the figure was 0.174 µM; with `CCOC(=O)Cc1c[nH]c2ccc(N)cc12`, > 50 µM (inactive); with `N#Cc1cc(S(=O)(=O)Nc2cc(OCc3ccccc3)cc3cccnc23)ccc1F`, > 50 µM (inactive). Take `O=C(NCCN1CCOCC1)NC1(C(F)(F)F)Oc2ccc(Cl)cc2O1` (stereo unspecified): the IC50 was > 50 µM (inactive). As to `Cc1ccc2[nH]c3c(c2c1)CN(C(=O)CN1CCN(c2ccccc2)CC1)CC3`, the IC50 was > 50 µM (inactive). For the compound `COc1ccc(NCc2cc3cc(OC)ccc3[nH]c2=O)cc1`, the IC50 was > 50 µM (inactive).

As for `O=[N+]([O-])c1cc(S(=O)(=O)Nc2ccc(F)c(-c3c(O)ccc4c3OCO4)c2)ccc1Cl`, the IC50 is 25 µM. With `CC(=O)CCCNc1c(OCc2ccccc2)ccc2c(C)cc(=O)oc12` the figure was > 50 µM (inactive); with `CC(C)c1cc(Nc2cccc(O)c2)cc(C(C)C)c1O`, 27.2 µM. On to `C=CCn1c(N)c(C(=O)OCC(C)C)c2nc3ccccc3nc21`, for which the IC50 is > 50 µM (inactive).

Take `Nc1cc(N)nc(SCC(=O)Nc2nonc2N)n1`: the IC50 was > 50 µM (inactive). As for `Nc1ccc(CSc2ccc(Cl)cc2)c(O)c1`, the IC50 was > 50 µM (inactive).

As to `Nc1cc(Cl)cc2cccnc12`, the IC50 was > 50 µM (inactive). With `CCOC(=O)NC1(NCc2ccccc2)Oc2ccccc2O1` the entry was “inactive”; with `CCOc1ccc2ccccc2c1-c1cc(NS(=O)(=O)c2ccc(OC)c(OC)c2)ccc1N`, > 50 µM (inactive); with `Nc1cc2ccccc2c(O)c1O`, less than 1.56 µM. With `O=C(CSc1n[nH]c(-c2ccccc2)n1)c1ccc(O)c(O)c1` the figure was 7.72 µM; with `O=S(=O)(Nc1cc(O)cc2cccnc12)c1ccc(F)cc1`, 11.2 µM; with `N#Cc1cc(S(=O)(=O)Nc2ccc(F)c(-c3c(O)ccc4c3OCO4)c2)ccc1F`, 25 µM. `Cc1cccc(NC(=O)Cn2nnc(-c3cccs3)n2)c1C`: the IC50 was > 50 µM (inactive). As for `c1ccc2sc(SCc3ccc(-c4nnco4)cc3)nc2c1`, the figure is > 50 µM (inactive); as for `CCOc1ccc2ccccc2c1-c1cc(NS(=O)(=O)c2ccc(C)cc2)ccc1N`, > 50 µM (inactive). With `Cn1c(=O)c2c(nc(CN3CCc4ccccc4C3)n2CCCO)n(C)c1=O` the figure was > 50 µM (inactive); with `Oc1ccc2ccccc2c1C=NC12CN3CCN(CN(C3)C1)C2`, 6.41 µM.

For the compound `C[C@H]1CCCC(=O)CCCCCc2cc(O)cc(O)c2C(=O)O1`, the concentration for half-maximal inhibition (IC50) was 2.2 µM. As for `Cc1ccc(S(=O)(=O)Nc2ccc(N)c(-c3ccccc3O)c2)cc1`, the figure is > 50 µM (inactive).

Consider `Cc1coc2c(O)cc3c(c12)OC1(N2CCCCC2)C(=O)NCCCC31` (stereo unspecified), for which the IC50 is 6.62 µM. With `O=C(c1n[nH]c(=O)c2ccccc12)N1CCN(C2c3ccccc3-c3ccccc32)CC1` the figure was > 50 µM (inactive); with `Cc1[nH]c2c(N)cccc2c1C`, > 50 µM (inactive).

Consider `O=C1c2ccccc2-c2onc3ccc(NCCCn4ccnc4)c1c23`, for which the IC50 is 0.28 µM. With `CCn1c(CSc2nccn2C)nc2cc(C(=O)O)ccc21` the figure was 13.4 µM; with `O=C1c2ccccc2C(=O)N1Cc1ccc2c(c1)OCO2`, > 50 µM (inactive). As for `Cc1ccccc1OCC(O)Cn1c(NCCN(C)C)nc2c1c(=O)n(C)c(=O)n2C` (stereo unspecified), the figure is > 50 µM (inactive); as for `CCOc1ccc(S(=O)(=O)Nc2cc(Sc3ncn[nH]3)c3oc(=O)sc3c2)cc1`, “inactive”; as for `O=C(c1ccc2ccccc2c1)N1CCN(c2ccc(O)cc2)CC1`, > 50 µM (inactive).

Take `O=S(=O)(Nc1ccc(O)c(-c2c(O)ccc3ccccc23)c1)c1ccccc1`: the IC50 is 13 µM. With `CCOC(=O)c1c(C)[nH]c2ccc(O)cc12` the figure was > 50 µM (inactive); with `CCOc1ccc(NCC(=O)Nc2ccc(C)cc2C)cc1`, 7.86 µM; with `Cn1cnnc1SCC(=O)c1ccc2c(c1)CCCC2`, > 50 µM (inactive).

Take `Cn1c(=O)c2c(nc(NCc3ccc4c(c3)OCO4)n2C)n(C)c1=O`: the IC50 is > 50 µM (inactive). For the compound `Nc1c(S(=O)(=O)c2cccc(Cl)c2)c2nc3ccccc3nc2n1/N=C/c1ccc(O)c(O)c1`, the IC50 was > 50 µM (inactive). In the case of `COc1cc(NCCCC(C)N)c2nccc(Cl)c2c1` (stereo unspecified), the IC50 is 12.5 µM.

`COc1ccc(NS(=O)(=O)c2ccccc2)c(OC)c1`: the IC50 is > 50 µM (inactive). With `O=C1c2cccnc2C(=O)N1Cc1ccc2c(c1)OCO2` the figure was > 50 µM (inactive); with `COc1ccc(S(=O)(=O)N(C)CC(=O)N2CCC(C(N)=O)CC2)cc1Cl`, > 50 µM (inactive); with `O=[N+]([O-])c1cccc(S(=O)(=O)Nc2ccc(O)c(-c3ccccc3O)c2)c1`, > 50 µM (inactive).

Take `CC(OC(=O)c1cccs1)C(=O)NCc1cccs1` (stereo unspecified): the IC50 is > 50 µM (inactive). With `CCCc1cc(-c2[nH]ncc2-c2ccc3c(c2)OCCCO3)c(O)cc1O` the figure was 12.2 µM; with `CCc1ccc(CNc2ccc(N3CCN(C(C)=O)CC3)cc2)cc1`, “inactive”. As for `Nc1cc(N)nc(SCC(=O)Nc2nncs2)n1`, the figure is > 50 µM (inactive); as for `Nc1cccc2cnccc12`, > 50 µM (inactive).

`Nc1nc2c(s1)CCc1c-2cnn1-c1ccccc1`: the IC50 was 11.2 µM. On to `Nc1ccc(Nc2nc3ccccc3s2)c(O)c1`, for which the IC50 was > 50 µM (inactive).

As to `CC(C)CN1C(=O)NC(NC(=O)c2ccco2)(C(F)(F)F)C1=O` (stereo unspecified), the IC50 is > 50 µM (inactive). As for `CCn1c(CSc2nnc(-c3cccnc3)n2-c2ccccc2C)nc2cc(C(=O)O)ccc21`, the figure is 0.679 µM. As for `Cn1ncnc2c(=O)n(C)c(=O)nc1-2`, the figure is 0.238 µM; as for `O=C1C(c2ccc3ccccc3n2)=C(O)c2ccccc21`, > 50 µM (inactive); as for `Nc1nonc1N1CCCCC1`, > 50 µM (inactive). As for `COc1cc(NCCN(CC(C)C)CC(C)C)c2ncccc2c1`, the entry is “inactive”; as for `O=C(O)CCC(=O)NCc1ccc2[nH]c3c(c2c1)CCCC3`, > 50 µM (inactive). With `CCCCn1c(NC(=O)c2ccccc2)c(C#N)c2nc3ccccc3nc21`, the IC50 was 27.1 µM.

`O=C1c2ccccc2C(Nc2ccc3c(c2)OCO3)N1Cc1ccc2c(c1)OCO2` (stereo unspecified): the IC50 is > 50 µM (inactive). For `CCc1ccc(-c2nnn(CCC(=O)OC)n2)cc1`, the IC50 was > 50 µM (inactive).

Regarding `Nc1cc(=O)[nH]c(SCC(=O)c2ccc3c(c2)OCO3)n1`, the IC50 is > 50 µM (inactive). With `Cc1c(-c2nn(C)c(=O)c3ccccc23)oc2ccc(F)cc2c1=O` the figure was 2.46 µM.

For the compound `O=C(O)/C=C/c1ccc(O)c(O)c1`, the IC50 is > 50 µM (inactive). As for `Oc1cccc2cccnc12`, the figure is > 50 µM (inactive); as for `Nc1cc(Br)cc2cccnc12`, > 50 µM (inactive); as for `N#CCSc1nnc2[nH]c(=O)cc(N)n12`, > 50 µM (inactive). As for `CC(=O)Oc1cc2c(C(=O)NCCN3CCOCC3)c(C)oc2c2ccccc12`, the figure is 19.7 µM; as for `O=C1C(c2cnc3c(n2)CCC=C3)=C(O)c2ccccc21`, > 50 µM (inactive); as for `CN(C)C=Nc1c(Br)cc(Br)c2nonc12`, > 50 µM (inactive). As for `O=c1cc(NCCCO)c2ccccc2o1`, the figure is > 50 µM (inactive); as for `Nc1cccc2cc(O)ccc12`, > 50 µM (inactive). For the compound `O=S(=O)(NC1CCc2ccccc21)c1ccc(S(=O)(=O)N2CCCC2)cc1` (stereo unspecified), the IC50 is > 50 µM (inactive). As for `Cc1cc(SCC(N)=O)nc(SCC(=O)c2ccccc2)n1`, the figure is > 50 µM (inactive); as for `CCOc1ccc2ccccc2c1-c1cc(NS(=O)(=O)c2cc(Cl)ccc2Cl)ccc1N`, > 50 µM (inactive); as for `COc1ccc(C2=NO[C@@H]3C(=O)N(c4c(C)cccc4C)C(=O)[C@H]23)cc1OC`, 25.4 µM. As for `Cc1ccc(OC(=O)c2ccc(N)cc2O)cc1`, the figure is > 50 µM (inactive); as for `Oc1c(Cl)cc(Cl)c2cccnc12`, > 50 µM (inactive). As for `CCc1nc(SCC(=O)c2ccc(O)cc2O)n[nH]1`, the figure is > 50 µM (inactive); as for `Cc1ccc(NC(=O)CC2SCCNC2=O)cc1Cl` (stereo unspecified), > 50 µM (inactive); as for `CCOC(=O)c1oc2c(O)c(O)ccc2c(=O)c1-c1nncn1-c1ccccc1`, 24.1 µM.

On to `Oc1c(I)cc(Cl)c2cccnc12`, for which the IC50 was > 50 µM (inactive). With `O=C(Cn1cnc2ccccc2c1=O)NCCC(=O)Nc1ccc2c(c1)OCCO2` the figure was > 50 µM (inactive); with `CC(=O)Oc1cccc2c1C(=O)c1c(OC(C)=O)cc(C(=O)O)cc1C2=O`, 9.23 µM; with `O=[N+]([O-])c1ccc(S(=O)(=O)Nc2cc(OCc3ccccc3)cc3cccnc23)cc1F`, > 50 µM (inactive). As for `O=S(=O)(Nc1ccc(Cl)cc1O)c1ccccc1`, the figure is > 50 µM (inactive).

As to `CC(=O)CCc1c(C)[nH]c2ccccc2c1=O`, the IC50 was > 50 µM (inactive). As for `O=C(c1cc(-c2ccncc2)nc2ccc(Br)cc12)N1CCN(c2ccccn2)CC1`, the figure is > 50 µM (inactive).

As to `Cc1noc(C(=O)Nc2ccc3c(c2)OCO3)c1Cl`, the IC50 is 22.5 µM. `O=c1oc2c3c4c(cc2s1)CCCN4CCC3`: the IC50 is > 50 µM (inactive).
